Data set [1] is described as follows: Rat PO PK with pH modulators (Pentagastrin or Famotidine pre-treatment). It is filed as in vivo. The source says: (§1) Example 16 is a prodrug of Example 1.
Data set [2] can be described thus: In vivo rat PK evaluation of pro-drug cleavage to parent. The conditions noted are these: all doses administered PO, parent = Example 1.
Text: as §1

The next data set has as its target T1, human KV 1.5 (Homo sapiens, UniProt P22460).
T1 construct: expressed in transfected cells; host or cells: mammalian L-929 cells (mouse fibroblast line)
Nature of the data set: Block of IKur current in patch clamped L-929 cells expressing human Kv1.5. It is filed as cell-based. The conditions noted are these: patch clamped mammalian L-929 cells stably expressing human Kv1.5 (IKur); for inhibition at 0.3 µM: L929, 0.3 μM, read-out: KV1_5% Inh L929 @0.3 μM. From the text:
1. Synders, D. J.; et al., “A rapidly activating and slowly inactivating potassium channel cloned from human heart: functional analysis after stable mammalian cell culture expression”, J. Gen. Physiol., 101:513-543 (1993). […]

T1 sequence (P22460 whole entry): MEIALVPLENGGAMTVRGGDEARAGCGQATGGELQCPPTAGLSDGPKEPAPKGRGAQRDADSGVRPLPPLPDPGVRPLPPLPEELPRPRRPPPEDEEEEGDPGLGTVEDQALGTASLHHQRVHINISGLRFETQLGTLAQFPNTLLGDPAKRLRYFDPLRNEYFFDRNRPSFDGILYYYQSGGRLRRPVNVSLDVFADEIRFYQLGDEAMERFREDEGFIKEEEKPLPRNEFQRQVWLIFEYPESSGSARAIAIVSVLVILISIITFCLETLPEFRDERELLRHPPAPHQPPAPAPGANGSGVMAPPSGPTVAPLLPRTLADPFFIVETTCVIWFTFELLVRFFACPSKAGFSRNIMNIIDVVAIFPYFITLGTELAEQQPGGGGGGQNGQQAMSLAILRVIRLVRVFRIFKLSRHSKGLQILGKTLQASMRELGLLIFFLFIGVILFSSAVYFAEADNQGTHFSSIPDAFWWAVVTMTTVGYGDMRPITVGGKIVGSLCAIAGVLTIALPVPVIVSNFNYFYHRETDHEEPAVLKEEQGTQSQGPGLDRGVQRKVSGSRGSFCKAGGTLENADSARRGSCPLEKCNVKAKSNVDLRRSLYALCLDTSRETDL

As for `O=P(O)(O)NS(=O)(=O)c1cncc(-c2nnc(NCc3ccccn3)c3c(-c4ccccc4)cccc23)c1` [Example 16, 5-(5-Phenyl-4-(pyridin-2-ylmethylamino)phthalazin-1-yl)pyridin-3-ylsulfonylphosphoramidic acid], the “Effect of pH modulators on PO PK (pH dependent absorption)” value in data set [1] was “mitigated the pH dependent absorption”. In data set [2], the “Pro-drug cleavage to the respective parent compound” value was “Pro-drug cleavage to the respective parent compound was demonstrated”.

Consider `CC(Nc1nnc(-c2cncc(S(N)(=O)=O)c2)c2cccc(-c3ccccc3)c12)c1ccccn1` (centres unmarked) [Example 34, 5-(5-Phenyl-4-((1-(pyridin-2-yl)ethyl)amino)phthalazin-1-yl)pyridine-3-sulfonamide], for which, at human KV 1.5 (0.3 μM), the “KV1_5% Inh L929 @0.3 μM” value worked out at 84%.

On to `CC(C)OC(=O)Nc1cncc(-c2nnc(NCc3ccccc3)c3c(-c4ccccc4)cccc23)c1` [Example 4], for which the inhibition at 0.3 µM on human KV 1.5 is 95.4%.

Turning to `CC(=O)Nc1cncc(-c2nnc(NCc3ccccn3)c3c(-c4ccccc4)cccc23)c1` [Example 11, N-(5-(5-Phenyl-4-(pyridin-2-ylmethylamino)phthalazin-1-yl)pyridin-3-yl)acetamide], on human KV 1.5, the inhibition at 0.3 µM was found to be 78.8%.

With `CC(C)OC(=O)Nc1cncc(-c2nnc(NCc3ccccn3)c3c(-c4ccccc4)cccc23)c1` [Example 12, Isopropyl 5-(5-phenyl-4-(pyridin-2-ylmethylamino)phthalazin-1-yl)pyridin-3-ylcarbamate], the inhibition at 0.3 µM at human KV 1.5 is 91.6%.

As for `NS(=O)(=O)c1cncc(-c2nnc(NCc3cccc(C(F)(F)F)c3)c3c(-c4ccccc4)cccc23)c1` [Example 38, 5-(5-Phenyl-4-((3-(trifluoromethyl)benzyl)amino)phthalazin-1-yl) pyridine-3-sulfonamide], the inhibition at 0.3 µM on human KV 1.5 was 94.9%.

Consider `OCC(O)c1cncc(-c2nnc(NCc3ccccn3)c3c(-c4ccccc4)cccc23)c1` (racemic) [Example 7, 1-(5-(5-Phenyl-4-(pyridin-2-ylmethylamino)phthalazin-1-yl)pyridin-3-yl)ethane-1,2-diol], for which, on human KV 1.5, the inhibition at 0.3 µM is 16%.

Turning to `Cc1cnc(CNC(=O)c2cncc(-c3nnc(NCc4ccccn4)c4c(-c5ccccc5)cccc34)c2)cn1` [Example 45, N-((5-Methylpyrazin-2-yl)methyl)-5-(5-phenyl-4-((pyridin-2-ylmelhyl)amino)phthalazin-1-yl) nicotinamide], the inhibition at 0.3 µM on human KV 1.5 worked out at 75.6%.

Take `NS(=O)(=O)c1cncc(-c2nnc(NCc3cccc(F)c3)c3c(-c4ccccc4)cccc23)c1` [Example 32, 5-(4-((3-Fluorobenzyl)amino)-5-phenylphthalazin-1-yl)pyridine-3-sulfonamide]: the inhibition at 0.3 µM at human KV 1.5 is 53.2%.

Regarding `CS(=O)(=O)Nc1cccc(NC(=O)c2cncc(-c3nnc(NCc4ccccn4)c4c(-c5ccccc5)cccc34)c2)c1` [Example 14, N-(3-(Methylsulfonamido)phenyl)-5-(5-phenyl-4-(pyridin-2-ylmethylamino)phthalazin-1-yl)nicotinamide], on human KV 1.5, the inhibition at 0.3 µM is 71%.

These data come from US9242966B2, “Phthalazines as potassium ion channel inhibitors” (BRISTOL-MYERS SQUIBB COMPANY, priority 2013, dated 2016).
